Legend:
[1] = system: clots formed by normal human plasma; assay: Clot lysis assay, normal human plasma diluted 10-fold, turbidity at 650 nm; format: biochemical; details: in the presence of 10 nM FVIIa
Description: Clot lysis assay: Normal human plasma diluted 10-fold with buffer (20 mM HEPES, 150 mM NaCl, 5 mM CaCl, pH 7.4) containing lapidated recombinant tissue factor (Innovin, Dade Behring, 2000-fold dilution), rFVIIa (Novo Nordisk A/S Bagsvaerd, Denmark, various concentrations) and t-PA (American Diagnostica, 8 nM) was added to 96-well ELISA plates and turbidity at 650 nm was measured over time at room temperature. Where indicated, Tranexamic acid (Sigma, various concentrations) was included.

whole human blood = assay: Whole blood rotation thrombelastography (ROTEG) clot strength; details: tranexamic acid in addition to FVIIa, tPA 2 nM

## NC[C@H]1CC[C@H](C(=O)O)CC1 [Tranexamic acid]
[1]
  Tranexamic acid concentration at which prolongation of clot lysis time was optimal: 1 µM
[1]; t-PA 8 nM
  effect on clot lysis time: further prolongation of the clot lysis time
Whole human blood
  mechanical strength of the clot: increased the mechanical strength of the clot
  overall survival time of the clot: increased
